Numbers after ± are expanded uncertainties.
Test: refractive index (Na D-line) (dimensionless); xn = mol fraction of the nth substance listed
Conditions: 101 kPa, Liquid, Standard Abbe refractometry

CCOC(=O)C(C)O (stereo not drawn) [DL-ethyl lactate] + Cc1ccccc1
refractive index
Conditions	x1 = 0.1001	x1 = 0.2001	x1 = 0.3	x1 = 0.4	x1 = 0.4998	x1 = 0.6001	x1 = 0.7	x1 = 0.7999	x1 = 0.9	x1 = 1
288.15 K	1.48891 ± 0.00033	1.47943 ± 0.00033	1.47043 ± 0.00034	1.46159 ± 0.00034	1.45318 ± 0.00034	1.44507 ± 0.00035	1.43735 ± 0.00035	1.42997 ± 0.00036	1.42267 ± 0.00036	1.41537 ± 0.00037
293.15 K	1.48604 ± 0.00033	1.47659 ± 0.00033	1.46764 ± 0.00034	1.45886 ± 0.00034	1.45051 ± 0.00034	1.44249 ± 0.00035	1.43485 ± 0.00035	1.42751 ± 0.00036	1.42032 ± 0.00036	1.41307 ± 0.00037
298.15 K	1.48316 ± 0.00033	1.47373 ± 0.00033	1.46482 ± 0.00034	1.45613 ± 0.00034	1.44784 ± 0.00034	1.43988 ± 0.00035	1.43231 ± 0.00035	1.42508 ± 0.00036	1.41794 ± 0.00036	1.41076 ± 0.00037
303.15 K	1.4803 ± 0.00033	1.47091 ± 0.00033	1.46199 ± 0.00034	1.45336 ± 0.00034	1.44515 ± 0.00034	1.43728 ± 0.00035	1.4298 ± 0.00035	1.42263 ± 0.00036	1.41555 ± 0.00036	1.40843 ± 0.00037
308.15 K	1.47745 ± 0.00033	1.46812 ± 0.00033	1.45914 ± 0.00034	1.45069 ± 0.00034	1.44254 ± 0.00034	1.43474 ± 0.00035	1.42731 ± 0.00035	1.42018 ± 0.00036	1.41313 ± 0.00036	1.4061 ± 0.00037
313.15 K	1.47462 ± 0.00033	1.46532 ± 0.00033	1.45628 ± 0.00034	1.44801 ± 0.00034	1.4399 ± 0.00034	1.43218 ± 0.00035	1.4248 ± 0.00035	1.41773 ± 0.00036	1.4107 ± 0.00036	1.40374 ± 0.00037
318.15 K	1.47184 ± 0.00033	1.46262 ± 0.00033	1.45368 ± 0.00034	1.44558 ± 0.00034	1.4376 ± 0.00034	1.42987 ± 0.00035	1.42243 ± 0.00035	1.41531 ± 0.00036	1.40819 ± 0.00036	1.40136 ± 0.00037
323.15 K	1.46909 ± 0.00033	1.45995 ± 0.00033	1.45131 ± 0.00034	1.44313 ± 0.00034	1.43523 ± 0.00034	1.42752 ± 0.00035	1.42006 ± 0.00035	1.41291 ± 0.00036	1.40578 ± 0.00036	1.39898 ± 0.00037

CCOC(=O)C(C)O (stereo not drawn) [DL-ethyl lactate] + CCC(C)=O
refractive index
Conditions	x1 = 0.0999	x1 = 0.1999	x1 = 0.3001	x1 = 0.4001	x1 = 0.5	x1 = 0.5998	x1 = 0.6999	x1 = 0.8	x1 = 0.9001	x1 = 1
288.15 K	1.3864 ± 0.00033	1.39058 ± 0.00033	1.39458 ± 0.00034	1.39808 ± 0.00034	1.40142 ± 0.00034	1.40472 ± 0.00035	1.40745 ± 0.00035	1.41049 ± 0.00036	1.41285 ± 0.00036	1.41571 ± 0.00037
293.15 K	1.38393 ± 0.00033	1.38819 ± 0.00033	1.39209 ± 0.00034	1.39574 ± 0.00034	1.39914 ± 0.00034	1.40234 ± 0.00035	1.40537 ± 0.00035	1.40818 ± 0.00036	1.41078 ± 0.00036	1.41307 ± 0.00037
298.15 K	1.38138 ± 0.00033	1.38566 ± 0.00033	1.38959 ± 0.00034	1.3933 ± 0.00034	1.39673 ± 0.00034	1.39997 ± 0.00035	1.40302 ± 0.00035	1.40585 ± 0.00036	1.40846 ± 0.00036	1.41076 ± 0.00037
303.15 K	1.37882 ± 0.00033	1.38314 ± 0.00033	1.38712 ± 0.00034	1.39082 ± 0.00034	1.39428 ± 0.00034	1.39754 ± 0.00035	1.40061 ± 0.00035	1.40346 ± 0.00036	1.4061 ± 0.00036	1.40843 ± 0.00037
308.15 K	1.37622 ± 0.00033	1.38055 ± 0.00033	1.38457 ± 0.00034	1.38833 ± 0.00034	1.39183 ± 0.00034	1.39511 ± 0.00035	1.39819 ± 0.00035	1.40105 ± 0.00036	1.40371 ± 0.00036	1.4061 ± 0.00037
313.15 K	1.37361 ± 0.00033	1.37791 ± 0.00033	1.38199 ± 0.00034	1.38577 ± 0.00034	1.38931 ± 0.00034	1.39263 ± 0.00035	1.39575 ± 0.00035	1.39864 ± 0.00036	1.40133 ± 0.00036	1.40374 ± 0.00037
318.15 K	1.37092 ± 0.00033	1.37524 ± 0.00033	1.37932 ± 0.00034	1.38316 ± 0.00034	1.38671 ± 0.00034	1.39001 ± 0.00035	1.39312 ± 0.00035	1.396 ± 0.00036	1.39886 ± 0.00036	1.40136 ± 0.00037
323.15 K	1.36811 ± 0.00033	1.3724 ± 0.00033	1.3765 ± 0.00034	1.38033 ± 0.00034	1.38393 ± 0.00034	1.38737 ± 0.00035	1.39051 ± 0.00035	1.39348 ± 0.00036	1.39642 ± 0.00036	1.39898 ± 0.00037

CCOC(=O)C(C)O (stereo not drawn) [DL-ethyl lactate] + CN1CCCC1=O
refractive index
Conditions	x1 = 0.0999	x1 = 0.2	x1 = 0.3001	x1 = 0.4	x1 = 0.4997	x1 = 0.6	x1 = 0.7002	x1 = 0.7999	x1 = 0.8997	x1 = 1
288.15 K	1.46662 ± 0.00033	1.46071 ± 0.00033	1.45507 ± 0.00034	1.44952 ± 0.00034	1.44392 ± 0.00034	1.43817 ± 0.00035	1.43232 ± 0.00035	1.42648 ± 0.00036	1.42076 ± 0.00036	1.41537 ± 0.00037
293.15 K	1.46449 ± 0.00033	1.45857 ± 0.00033	1.4529 ± 0.00034	1.44734 ± 0.00034	1.44172 ± 0.00034	1.43597 ± 0.00035	1.43014 ± 0.00035	1.4243 ± 0.00036	1.41855 ± 0.00036	1.41307 ± 0.00037
298.15 K	1.46235 ± 0.00033	1.45645 ± 0.00033	1.45078 ± 0.00034	1.4452 ± 0.00034	1.43956 ± 0.00034	1.4338 ± 0.00035	1.42795 ± 0.00035	1.42209 ± 0.00036	1.41631 ± 0.00036	1.41076 ± 0.00037
303.15 K	1.46021 ± 0.00033	1.45431 ± 0.00033	1.44863 ± 0.00034	1.44302 ± 0.00034	1.43738 ± 0.00034	1.43161 ± 0.00035	1.42575 ± 0.00035	1.41988 ± 0.00036	1.41406 ± 0.00036	1.40843 ± 0.00037
308.15 K	1.45809 ± 0.00033	1.45218 ± 0.00033	1.44646 ± 0.00034	1.44084 ± 0.00034	1.43516 ± 0.00034	1.42939 ± 0.00035	1.42354 ± 0.00035	1.41768 ± 0.00036	1.41183 ± 0.00036	1.4061 ± 0.00037
313.15 K	1.45594 ± 0.00033	1.45005 ± 0.00033	1.44428 ± 0.00034	1.43859 ± 0.00034	1.43288 ± 0.00034	1.4271 ± 0.00035	1.42126 ± 0.00035	1.41542 ± 0.00036	1.40957 ± 0.00036	1.40374 ± 0.00037
318.15 K	1.45386 ± 0.00033	1.44796 ± 0.00033	1.44218 ± 0.00034	1.43648 ± 0.00034	1.43073 ± 0.00034	1.4249 ± 0.00035	1.41902 ± 0.00035	1.41312 ± 0.00036	1.40722 ± 0.00036	1.40136 ± 0.00037
323.15 K	1.45178 ± 0.00033	1.44586 ± 0.00033	1.44006 ± 0.00034	1.43431 ± 0.00034	1.42854 ± 0.00034	1.42269 ± 0.00035	1.41679 ± 0.00035	1.41086 ± 0.00036	1.40492 ± 0.00036	1.39898 ± 0.00037

Source: the NIST ThermoML archive (doi:10.1016/j.fluid.2015.04.017)
